# Measured values: the NIST ThermoML archive (doi:10.1021/acs.jced.6b00178)
# Several values for one entry are separate records, joined by “and”; a condition that tells them apart may be missing. Equal values may be shown once. ± gives the expanded uncertainty stated by the source.
# Conditions: 100 kPa, Liquid; for viscosity: Concentric cylinders viscometry; for mass density: Vibrating tube method
Structure (SMILES),viscosity (283.15 K),mass density (283.15 K) [kg/m3],viscosity (288.15 K),mass density (288.15 K) [kg/m3],viscosity (293.15 K),mass density (293.15 K) [kg/m3],viscosity (298.15 K),mass density (298.15 K) [kg/m3],viscosity (303.15 K),mass density (303.15 K) [kg/m3],viscosity (308.15 K),mass density (308.15 K) [kg/m3],viscosity (313.15 K),mass density (313.15 K),viscosity (318.15 K),mass density (318.15 K),viscosity (323.15 K),mass density (323.15 K),viscosity (328.15 K),mass density (328.15 K),other results
CC(=O)[O-].CCCCn1cc[n+](C)c1 [1-butyl-3-methylimidazolium acetate],1013.4 ± 64 mPa·s,1062.7 ± 1,645.6 ± 39 mPa·s,1059.4 ± 1,421.35 ± 24 mPa·s,1056 ± 1,292.57 ± 16 mPa·s,1052.8 ± 1,206.68 ± 11 mPa·s,1049.7 ± 1,150.08 ± 7.9 mPa·s,1046.6 ± 1,110.79 ± 5.8 mPa·s,1043.5 ± 1 kg/m3,85.03 ± 4.4 mPa·s,1040.5 ± 1 kg/m3,66.07 ± 3.4 mPa·s,1037.5 ± 1 kg/m3,52.29 ± 2.7 mPa·s,1034.5 ± 1 kg/m3,viscosity (333.15 K): 42.29 ± 2.2 mPa·s; mass density (333.15 K): 1031.5 ± 1 kg/m3; viscosity (338.15 K): 34.38 ± 1.8 mPa·s; mass density (338.15 K): 1028.5 ± 1 kg/m3; viscosity (343.15 K): 28.48 ± 1.5 mPa·s; mass density (343.15 K): 1025.6 ± 1 kg/m3; viscosity (348.15 K): 23.88 ± 1.2 mPa·s; mass density (348.15 K): 1022.6 ± 1 kg/m3; viscosity (353.15 K): 20.63 ± 1.1 mPa·s; mass density (353.15 K): 1019.7 ± 0.9 kg/m3; viscosity (358.15 K): 17.35 ± 0.89 mPa·s; mass density (358.15 K): 1016.7 ± 0.9 kg/m3; viscosity (363.15 K): 15 ± 0.77 mPa·s; mass density (363.15 K): 1013.9 ± 0.9 kg/m3
CCCCn1cc[n+](C)c1.N#C[S-] [1-butyl-3-methylimidazolium thiocyanate],139.54 ± 7.3 mPa·s,1079.2 ± 1,104.51 ± 5.4 mPa·s,1076.2 ± 1,82.91 ± 4.3 mPa·s,1073.2 ± 1,62.63 ± 3.2 mPa·s,1070.2 ± 1,49.94 ± 2.6 mPa·s,1067.2 ± 1,40.48 ± 2.1 mPa·s,1064.2 ± 1,34.08 ± 1.7 mPa·s,1061.3 ± 1 kg/m3,27.8 ± 1.4 mPa·s,1058.4 ± 1 kg/m3,23.49 ± 1.2 mPa·s,1055.5 ± 1 kg/m3,20.06 ± 1 mPa·s,1052.6 ± 1 kg/m3,viscosity (333.15 K): 17.58 ± 0.9 mPa·s; mass density (333.15 K): 1049.8 ± 1 kg/m3; viscosity (338.15 K): 15.08 ± 0.77 mPa·s; mass density (338.15 K): 1047 ± 1 kg/m3; viscosity (343.15 K): 13.24 ± 0.68 mPa·s; mass density (343.15 K): 1044.1 ± 1 kg/m3; viscosity (348.15 K): 11.71 ± 0.6 mPa·s; mass density (348.15 K): 1041.4 ± 1 kg/m3; viscosity (353.15 K): 10.67 ± 0.55 mPa·s; mass density (353.15 K): 1038.6 ± 1 kg/m3; viscosity (358.15 K): 9.355 ± 0.48 mPa·s; mass density (358.15 K): 1035.8 ± 1 kg/m3; viscosity (363.15 K): 8.436 ± 0.43 mPa·s; mass density (363.15 K): 1033.1 ± 1 kg/m3
CCCC[n+]1ccn(C)c1.O=S(=O)([N-]S(=O)(=O)C(F)(F)F)C(F)(F)F,106.78 ± 5.5 mPa·s and 106.77 ± 5.5 mPa·s,1451.8 ± 0.8,82.14 ± 4.2 mPa·s and 82.16 ± 4.2 mPa·s,1446.9 ± 0.8,66.36 ± 3.3 mPa·s and 64.53 ± 3.3 mPa·s,1442.1 ± 0.8,51.58 ± 2.6 mPa·s and 51.6 ± 2.6 mPa·s,1437.2 ± 0.8,41.94 ± 2.1 mPa·s and 41.93 ± 2.1 mPa·s,1432.4 ± 0.7,34.6 ± 1.7 mPa·s and 34.59 ± 1.7 mPa·s,1427.6 ± 0.7,29.48 ± 1.5 mPa·s and 28.91 ± 1.5 mPa·s,1422.8 ± 0.7 kg/m3 and 1422.9 ± 0.7 kg/m3,24.47 ± 1.2 mPa·s and 24.46 ± 1.2 mPa·s,1418.1 ± 0.7 kg/m3 and 1418.2 ± 0.7 kg/m3,20.93 ± 1.1 mPa·s and 20.91 ± 1.1 mPa·s,1413.4 ± 0.7 kg/m3 and 1413.5 ± 0.7 kg/m3,18.07 ± 0.91 mPa·s and 18.05 ± 0.91 mPa·s,1408.7 ± 0.7 kg/m3 and 1408.8 ± 0.7 kg/m3,viscosity (333.15 K): 15.95 ± 0.8 mPa·s and 15.72 ± 0.79 mPa·s; mass density (333.15 K): 1404.1 ± 0.7 kg/m3 and 1404 ± 0.7 kg/m3; viscosity (338.15 K): 13.83 ± 0.7 mPa·s and 13.8 ± 0.69 mPa·s; mass density (338.15 K): 1399.4 ± 0.7 kg/m3 and 1399.3 ± 0.7 kg/m3; viscosity (343.15 K): 12.23 ± 0.62 mPa·s and 12.2 ± 0.61 mPa·s; mass density (343.15 K): 1394.8 ± 0.7 kg/m3 and 1394.7 ± 0.7 kg/m3; viscosity (348.15 K): 10.9 ± 0.55 mPa·s and 10.86 ± 0.55 mPa·s; mass density (348.15 K): 1390.2 ± 0.7 kg/m3 and 1390.1 ± 0.7 kg/m3; viscosity (353.15 K): 9.985 ± 0.5 mPa·s and 9.72 ± 0.49 mPa·s; mass density (353.15 K): 1385.6 ± 0.7 kg/m3 and 1385.5 ± 0.7 kg/m3; viscosity (358.15 K): 8.806 ± 0.44 mPa·s and 8.754 ± 0.44 mPa·s; mass density (358.15 K): 1381.1 ± 0.7 kg/m3 and 1381 ± 0.7 kg/m3; viscosity (363.15 K): 7.98 ± 0.4 mPa·s and 7.926 ± 0.4 mPa·s; mass density (363.15 K): 1376.6 ± 0.7 kg/m3 and 1376.4 ± 0.7 kg/m3
